{"source": "patent US20260166068A1", "about": "“COMPOSITION FOR PROMOTING DEVELOPMENT OF BRAIN FUNCTIONS IN CHILDREN” (Meiji Co., Ltd., priority 2022, published 2026)", "key": {"[1]": {"test_system": "brain function development of infants", "test": "Spearman correlation of NAD-related substance concentration in 1-month breast milk with ASQ-3 developmental scores at 24 months", "assay_type": "in vivo, human", "conditions": "for Correlation with concentration, r (Spearman): ASQ-3 at 24 months, 1-month breast milk; for Correlation of concentration in breast milk with developmental scores (in words): p<0.05", "description": "(§1) The method was specifically as follows.\nConcentrations of NAD-related substances in 1-month breast milk ingested by 150 infants of 1 to 6 months old, who were fully breastfed, were determined by LC-MS/MS.\nDevelopment of the infants was assessed at the age of 24 months using ASQ (registered trademark)-3 (Japanese version of ASQ (registered trademark)-3 infant developmental screening questionnaires, Igaku Shoin, 2021). The relationship between the amount of each NAD-related substance ingested by the infants and their development was evaluated by using Spearman's rank-order correlation coefficient."}, "[2]": {"test_system": "brain function development of infants", "test": "Between-group comparison (Mann-Whitney U) of ASQ-3 developmental scores, high NMN vs low NMN breast milk", "assay_type": "in vivo, human", "description": "as §1\nBy using the data on the contents of NMN in breast milk and the developmental scores of the infants shown in Method 1, the subject infants were divided into two groups according to the concentration of NMN in breast milk, and the groups were compared according to Mann-Whitney's U-test. In this study, the boundary concentration of the two groups was set to be 1.922 μg/mL (mean NMN concentration in 1-month breast milk−1×standard deviation) or 3.089 μg/mL (mean NMN concentration in 1-month breast milk). That is, the group comparison was performed between two groups of NMN concentrations in the consumed breast milk of […] (high NMN group) and <1.922 μg/mL (low NMN group), or two groups of the same of 3.089 μg/mL (high NMN group) and <3.089 μg/mL (low NMN group)."}, "aged mice": {"test_system": "aged mice", "conditions": "cited from earlier work"}, "mouse": {"test_system": "mouse", "conditions": "aging; cited from earlier work"}, "old rats": {"test_system": "old rats", "conditions": "each alone or in combination; cited from earlier work"}, "[3]": {"test_system": "mouse model of drug-induced depression", "conditions": "cited from earlier work"}, "piglets": {"test_system": "piglets", "conditions": "cited from earlier work"}, "mice": {"test_system": "mice", "conditions": "cited from earlier work"}}, "note": "Values joined by “and” are separate entries in the source; they are usually repeats but may differ in a detail not shown here. Equal values may be shown once."}
{"smiles": "O=C(O)c1cccnc1", "note": "[NA, nicotinic acid]", "values": [{"measurement": "Correlation with concentration, r (Spearman)", "setting": "[1]; Communication, 150 infants", "result": 0.025}, {"measurement": "Correlation with concentration, r (Spearman)", "setting": "[1]; Gross motor", "result": 0.095}, {"measurement": "Correlation with concentration, r (Spearman)", "setting": "[1]; Problem solving", "result": 0.147}, {"measurement": "Correlation with concentration, r (Spearman)", "setting": "[1]; Social-individual", "result": 0.154}, {"measurement": "Correlation of concentration in breast milk with developmental scores (in words)", "setting": "[1]; gross motor", "result": "positive correlation"}]}
{"smiles": "NC(=O)c1ccc[n+]([C@@H]2O[C@H](COP(=O)([O-])OP(=O)(O)OC[C@H]3O[C@@H](n4cnc5c(N)ncnc54)[C@H](O)[C@@H]3O)[C@@H](O)[C@H]2O)c1", "note": "[NAD, nicotinamide adenine dinucleotide]", "values": [{"measurement": "Correlation with concentration, r (Spearman)", "setting": "[1]; Fine motor", "result": 0.025}, {"measurement": "Correlation with concentration, r (Spearman)", "setting": "[1]; Gross motor", "result": 0.077}, {"measurement": "Correlation with concentration, r (Spearman)", "setting": "[1]; Problem solving", "result": 0.056}, {"measurement": "Correlation with concentration, r (Spearman)", "setting": "[1]; Social-individual", "result": 0.048}]}
{"smiles": "NC(=O)c1ccc[n+]([C@@H]2O[C@H](COP(=O)([O-])O)[C@@H](O)[C@H]2O)c1", "note": "[NMN, nicotinamide mononucleotide]", "values": [{"measurement": "Correlation with concentration, r (Spearman)", "setting": "[1]; Communication, 150 infants", "result": 0.199}, {"measurement": "Correlation with concentration, r (Spearman)", "setting": "[1]; Fine motor", "result": 0.208}, {"measurement": "Correlation with concentration, r (Spearman)", "setting": "[1]; Gross motor", "result": 0.186}, {"measurement": "Correlation with concentration, r (Spearman)", "setting": "[1]; Problem solving", "result": 0.288}, {"measurement": "Correlation with concentration, r (Spearman)", "setting": "[1]; Social-individual", "result": "0.269 and 0.259"}, {"measurement": "Correlation of concentration in breast milk with developmental scores (in words)", "setting": "[1]; all five developmental areas at 24 months", "result": "significant positive correlation"}, {"measurement": "Effectiveness in promoting brain development in infants among the NAD-related substances", "setting": "[1]; in vivo", "result": "most effective"}, {"measurement": "Correlation between amount in breast milk ingested from 1 to 6 months of age and development by ASQ-3 24-month (in words)", "setting": "[1]; overall", "result": "high correlation"}, {"measurement": "Development of the infants, high NMN group vs low NMN group", "setting": "[2]; fine motor, boundary value 3.089 μg/mL, FIG. 2", "result": "significantly accelerated"}, {"measurement": "NMN level in the composition at which infants' brain functions are significantly enhanced", "setting": "[2]; in vivo", "result": "≥ 1.922", "unit": "µg/mL"}, {"measurement": "Development of the infants, high NMN group vs low NMN group", "setting": "[2]; personal-social, boundary value 1.922 μg/mL, FIG. 1", "result": "significantly accelerated"}, {"measurement": "Development of the infants, high NMN group vs low NMN group", "setting": "[2]; personal-social, boundary value 3.089 μg/mL, FIG. 2", "result": "significantly accelerated"}, {"measurement": "Development of the infants, high NMN group vs low NMN group", "setting": "[2]; problem solving, boundary value 3.089 μg/mL, FIG. 2", "result": "significantly accelerated"}, {"measurement": "Neurovascular coupling", "setting": "aged mice", "result": "may promote neurovascular coupling"}, {"measurement": "Hypersensitive behaviors to fear and anxiety", "setting": "mouse", "result": "may alleviate hypersensitive behaviors to fear and anxiety"}, {"measurement": "Learning and memory abilities", "setting": "old rats", "result": "improves their learning and memory abilities"}, {"measurement": "Drug-induced depression-like symptoms", "setting": "[3]", "result": "improves drug-induced depression-like symptoms"}]}
{"smiles": "NC(=O)c1ccc[n+]([C@@H]2O[C@H](CO)[C@@H](O)[C@H]2O)c1", "note": "[NR, nicotinamide riboside]", "values": [{"measurement": "Correlation with concentration, r (Spearman)", "setting": "[1]; Communication, 150 infants", "result": 0.017}, {"measurement": "Correlation with concentration, r (Spearman)", "setting": "[1]; Fine motor", "result": 0.085}, {"measurement": "Correlation with concentration, r (Spearman)", "setting": "[1]; Gross motor", "result": 0.082}, {"measurement": "Correlation with concentration, r (Spearman)", "setting": "[1]; Social-individual", "result": 0.117}, {"measurement": "Correlation of concentration in breast milk with developmental scores (in words)", "setting": "[1]; problem solving", "result": "positive correlation"}, {"measurement": "Short-chain fatty acids in feces", "setting": "piglets", "result": "increased levels"}, {"measurement": "BDNF level in breast milk", "setting": "mice; NR supplementation of mothers", "result": "twice as high"}, {"measurement": "Fat and brain size of offspring at weaning", "setting": "mice; mice raised by supplemented mothers", "result": "lower fat and larger brains"}, {"measurement": "Milk secretion and production of BDNF", "setting": "mice; mouse, in vivo", "result": "stimulates milk secretion"}]}
{"smiles": "COc1ccc2[nH]cc(CCNC(C)=O)c2c1", "note": "[melatonin]", "values": [{"measurement": "Learning and memory abilities", "setting": "old rats", "result": "improves their learning and memory abilities"}]}
